The values below come from patent publication US11932626B2, “2-pyrimidone analogs as potent antiviral agents against Alphaviruses” (priority 2020, dated 2024).

The subject of one data set is CHIKV. Briefly: CHIKV virus titer reduction (VTR) assay in NHDF cells. The data set is classed as cell-based. Particulars: Chikungunya virus; for log reduction at 10 µM: CHIKV titer reduction at 10 μM, normal human dermal fibroblasts (NHDF) cells; for EC90: effective concentration of 90% inhibition of virus in a VTR assay, NHDF cells.
The test system of data set [1] is CHIKV linked NanoLuc luciferase reporter. Nature of the data set: microbe, parasite or virus in culture. The data set is classed as cell-based. Conditions: Chikungunya virus, read-out: CHIKV EC50.
The test system of another data set is VEEV. Briefly: microbe, parasite or virus in culture. The format is cell-based. Conditions: Venezuelan equine encephalitis virus, NHDF; for EC90: read-out: VEEV EC90; for log reduction at 10 µM: read-out: VEEV VTR.
A further data set is described as follows: in vitro. Conditions: human.
For another data set, the system named is VEEV (TC-83). Briefly: microbe, parasite or virus in culture. The data set is classed as cell-based. Particulars: Venezuelan equine encephalitis virus, read-out: VEEV EC50.

Bounds are passed on as bounds.

What is called EC90 is the concentration at which the effect reaches the 90% level. The EC50 is the concentration that produces a half-maximal response.

For `O=C(COc1cc(C2CC(F)(F)C2)[nH]c(=O)n1)NC12CC3CC(CC(C3)C1)C2` [compound 14, N-(Adamantan-1-Yl)-2-((6-(3,3-Difluorocyclobutyl)-2-Oxo-1,2-Dihydropyrimidin-4-Yl)Oxy)Acetamide], the log reduction at 10 µM was found to be 3.17 in the data set with CHIKV and 8.19 with VEEV. The EC90 turned out to be 70 nM in the data set with CHIKV and 30 nM with VEEV. Moreover, the EC50 was under 78 nM in data set [1] and 830 nM with VEEV (TC-83). In “in vitro”, this molecule displayed a CC50 of over 40000 nM.

For `O=C(COc1cc(-c2ccccc2)[nH]c(=O)n1)NC12CC3CC(CC(C3)C1)C2` [compound 15, N-(Adamantan-1-Yl)-2-((2-Oxo-6-Phenyl-1,2-Dihydropyrimidin-4-Yl)Oxy)Acetamide], the log reduction at 10 µM is 8.93 in the data set with CHIKV and 3.25 with VEEV. The EC90 turned out to be 2700 nM in the data set on CHIKV and 2020 nM in the data set with VEEV. In addition, the results for the 50% effective concentration (EC50) (in data set [1]; in the data set with VEEV (TC-83)) were 1470 nM and 20800 nM, respectively. For the same molecule, the CC50 in the data set “in vitro” is over 40000 nM.

On to `O=C(COc1cc(C(F)(F)F)[nH]c(=O)n1)NC12CC3CC(CC(C3)C1)C2` [compound 16, N-(Adamantan-1-Yl)-2-((2-Oxo-6-(Trifluoromethyl)-1,2-Dihydropyrimidin-4-Yl)Oxy)Acetamide], for which the log reduction at 10 µM was determined as 1.09 with CHIKV and 0 in the data set with VEEV. Besides, the EC90 was 15000 nM in the data set on CHIKV and over 10000 nM in the data set with VEEV. For the same molecule, the EC50 (in data set [1]; in the data set with VEEV (TC-83)) was over 40000 nM each time. The molecule further displayed a CC50 in “in vitro” of over 40000 nM.

As to `N#Cc1ccc(-c2cc(OCC(=O)NC34CC5CC(CC(C5)C3)C4)nc(=O)[nH]2)cc1` [compound 17, N-(Adamantan-1-Yl)-2-((6-(4-Cyanophenyl)-2-Oxo-1,2-Dihydropyrimidin-4-Yl)Oxy)Acetamide], the results for the log reduction at 10 µM with CHIKV and in the data set on VEEV were 1.59 and 3.69, respectively. The figures for the EC90 with CHIKV and with VEEV were over 40000 nM and 9800 nM, respectively. The EC50 (in data set [1]; with VEEV (TC-83)) was over 40000 nM throughout. In the data set “in vitro”, this molecule registered a CC50 of over 40000 nM.

With `O=C(COc1cc(Cl)[nH]c(=O)n1)NC12CC3CC(CC(C3)C1)C2` [compound 18, N-(Adamantan-1-Yl)-2-((6-Chloro-2-Oxo-1,2-Dihydropyrimidin-4-Yl)Oxy)Acetamide], the log reduction at 10 µM in the data set with CHIKV came to 5.19; in the data set with VEEV it was 1. For the same molecule, the values for the EC90 in the data set on CHIKV and with VEEV were 510 nM and 5650 nM, respectively. In addition, the figures for the EC50 (in data set [1]; with VEEV (TC-83)) were 810 nM and 16100 nM, respectively. Further, the CC50 in “in vitro” is over 40000 nM.

Turning to `O=C(COc1cc(N2CCOCC2)[nH]c(=O)n1)NC12CC3CC(CC(C3)C1)C2` [compound 19, N-(Adamantan-1-Yl)-2-((6-Morpholino-2-Oxo-1,2-Dihydropyrimidin-4-Yl)Oxy)Acetamide], the figures for the log reduction at 10 µM with CHIKV and with VEEV were 4.84 and 4.4, respectively. Also, the EC90 is 740 nM in the data set with CHIKV and 3200 nM in the data set on VEEV. Besides, the EC50 was found to be 2380 nM in data set [1] and 33300 nM with VEEV (TC-83). Besides, the CC50 in the data set “in vitro” was over 40000 nM.

Consider `O=C(COc1cc(N2CC(F)(F)C2)[nH]c(=O)n1)NC12CC3CC(CC(C3)C1)C2` [compound 20, N-(Adamantan-1-Yl)-2-((6-(3,3-Difluoroazetidin-1-Yl)-2-Oxo-1,2-Dihydropyrimidin-4-Yl)Oxy)Acetamide], for which the figures for the log reduction at 10 µM in the data set on CHIKV and with VEEV were 3.49 and 6.63, respectively. For the same molecule, the EC90 in the data set on CHIKV turned out to be 67 nM; in the data set on VEEV, 400 nM. Also, the EC50 in data set [1] was under 78 nM; in the data set on VEEV (TC-83), 2010 nM. In “in vitro”, this molecule had a CC50 of over 40000 nM.

On to `O=C(COc1nc(=O)[nH]c2c1CCC2)NC12CC3CC(CC(C3)C1)C2` [compound 21, N-(Adamantan-1-Yl)-2-((2-Oxo-2,5,6,7-Tetrahydro-1H-Cyclopenta[D]Pyrimidin-4-Yl)Oxy)Acetamide], for which the log reduction at 10 µM with CHIKV came to 4.26; in the data set with VEEV it was 5.2. Also, the EC90 in the data set with CHIKV was found to be 300 nM; in the data set with VEEV, 1000 nM. In addition, the EC50 came out at 530 nM in data set [1] and 15700 nM in the data set with VEEV (TC-83). The molecule also had a CC50 in “in vitro” of over 40000 nM.

With `O=C(COc1nc(=O)[nH]c2c1CCCC2)NC12CC3CC(CC(C3)C1)C2` [compound 22, N-(Adamantan-1-Yl)-2-((2-Oxo-1,2,5,6,7,8-Hexahydroquinazolin-4-Yl)Oxy)Acetamide], the log reduction at 10 µM in the data set on CHIKV came out at 4.94; in the data set with VEEV it was 7.02. Also, the results for the EC90 with CHIKV and in the data set on VEEV were 45 nM and 1440 nM, respectively. Besides, the values for the EC50 (in data set [1]; in the data set with VEEV (TC-83)) were 640 nM and 8700 nM, respectively. The molecule also had a CC50 in “in vitro” of over 40000 nM.

Consider `O=C(COc1nc(=O)[nH]c2c1COCC2)NC12CC3CC(CC(C3)C1)C2` [compound 23, N-(Adamantan-1-Yl)-2-((2-Oxo-1,5,7,8-Tetrahydro-2H-Pyrano[4,3-D]Pyrimidin-4-Yl)Oxy)Acetamide], for which the figures for the log reduction at 10 µM with CHIKV and in the data set with VEEV were 5.85 and 6.4, respectively. For the same molecule, the EC90 in the data set with CHIKV worked out at 200 nM; in the data set on VEEV it was 2100 nM. Also, the figures for the EC50 (in data set [1]; with VEEV (TC-83)) were 1110 nM and 11100 nM, respectively. This molecule had a CC50 in “in vitro” of over 40000 nM.

As for `O=C(COc1nc(=O)[nH]c2ccccc12)NC12CC3CC(CC(C3)C1)C2` [compound 24, N-(Adamantan-1-Yl)-2-((2-Oxo-1,2-Dihydroquinazolin-4-Yl)Oxy)Acetamide], the log reduction at 10 µM in the data set with CHIKV worked out at 6.28; with VEEV, 1. Besides, the values for the EC90 in the data set on CHIKV and in the data set on VEEV were 300 nM and 3200 nM, respectively. Further, the figures for the EC50 (in data set [1]; with VEEV (TC-83)) were 470 nM and over 40000 nM, respectively. Moreover, the CC50 in the data set “in vitro” was over 40000 nM.

With `Cc1c[nH]c(=O)nc1OCC(=O)NC12CC3CC(CC(C3)C1)C2` [compound 25, N-(Adamantan-1-Yl)-2-((5-Methyl-2-Oxo-1,2-Dihydropyrimidin-4-Yl)Oxy)Acetamide], the log reduction at 10 µM with CHIKV came out at 4.91; with VEEV it was 3.04. In addition, the EC90 in the data set with CHIKV is 2100 nM; in the data set on VEEV, 2830 nM. Besides, the values for the EC50 (in data set [1]; in the data set on VEEV (TC-83)) were 1970 nM and 16100 nM, respectively. The CC50 in the data set “in vitro” was over 40000 nM.

As to `O=C(COc1nc(=O)[nH]cc1F)NC12CC3CC(CC(C3)C1)C2` [compound 26, N-(ADAMANTAN-1-YL)-2-((5-FLUORO-2-OXO-1,2-DIHYDROPYRIMIDIN-4-YL)OXY)ACETAMIDE], the log reduction at 10 µM in the data set on CHIKV came out at 5.19; in the data set on VEEV, 3.22. For the same molecule, the EC90 turned out to be 300 nM with CHIKV and 100 nM in the data set on VEEV. Besides, the EC50 in data set [1] is 3150 nM; in the data set with VEEV (TC-83), over 40000 nM. In “in vitro”, the CC50 is over 40000 nM.

As for `O=C(COc1nc(=O)[nH]cc1F)NC1C2CC3CC(C2)CC1C3` (stereo not shown) [compound 27, N-(Adamantan-2-Yl)-2-((5-Fluoro-2-Oxo-1,2-Dihydropyrimidin-4-Yl)Oxy)Acetamide], the log reduction at 10 µM in the data set on CHIKV came out at 1.31; with VEEV, 0. In addition, the EC90 was found to be 8750 nM in the data set on CHIKV and 10000 nM in the data set on VEEV. Moreover, the EC50 in data set [1] was 32500 nM; in the data set with VEEV (TC-83) it was over 40000 nM. Moreover, the CC50 in the data set “in vitro” is over 40000 nM.

On to `O=C(COc1nc(=O)[nH]cc1Cl)NC12CC3CC(CC(C3)C1)C2` [compound 28, N-(Adamantan-1-Yl)-2-((5-Chloro-2-Oxo-1,2-Dihydropyrimidin-4-Yl)Oxy)Acetamide], for which the log reduction at 10 µM is 1.6 in the data set on CHIKV and 0.71 with VEEV. Besides, the figures for the EC90 in the data set on CHIKV and in the data set with VEEV were 10000 nM and over 10000 nM, respectively. For the same molecule, the EC50 in data set [1] was 33400 nM; in the data set with VEEV (TC-83) it was over 40000 nM. For the same molecule, the CC50 in the data set “in vitro” is over 40000 nM.

Consider `Cc1[nH]c(=O)nc(OCC(=O)NC23CC4CC(CC(C4)C2)C3)c1C` [compound 29, N-(Adamantan-1-Yl)-2-((5,6-Dimethyl-2-Oxo-1,2-Dihydropyrimidin-4-Yl)Oxy)Acetamide], for which the log reduction at 10 µM in the data set with CHIKV was 4.24; in the data set on VEEV it was 2.91. For the same molecule, the figures for the EC90 in the data set with CHIKV and in the data set on VEEV were 400 nM and 2970 nM, respectively. For the same molecule, the EC50 was 2290 nM in data set [1] and over 40000 nM in the data set with VEEV (TC-83). Further, the CC50 in “in vitro” is over 40000 nM.

As for `O=C(COc1nc(=O)[nH]c(N2C3CCC2COC3)c1F)NC12CC3CC(CC(C3)C1)C2` [compound 34, 2-((6-(3-Oxa-8-Azabicyclo[3.2.1]Octan-8-Yl)-5-Fluoro-2-Oxo-1,2-Dihydropyrimidin-4-Yl)Oxy)-N-(Adamantan-1-Yl)Acetamide], the log reduction at 10 µM in the data set with CHIKV is 6.13; with VEEV, 1.97. Besides, the EC90 in the data set on CHIKV came out at 190 nM; with VEEV, 5000 nM. The results for the EC50 (in data set [1]; with VEEV (TC-83)) were 1020 nM and 22500 nM, respectively. Besides, the CC50 in “in vitro” is over 40000 nM.

With `O=C(COc1nc(=O)[nH]c(N2CC(F)(F)C2)c1F)NC12CC3CC(CC(C3)C1)C2` [compound 35, N-(Adamantan-1-Yl)-2-((6-(3,3-Difluoroazetidin-1-Yl)-5-Fluoro-2-Oxo-1,2-Dihydropyrimidin-4-Yl)Oxy)Acetamide], the log reduction at 10 µM in the data set on CHIKV is 4; in the data set on VEEV, 3.35. In addition, the EC90 was determined as 51 nM in the data set on CHIKV and 1500 nM in the data set with VEEV. Besides, the EC50 was found to be 700 nM in data set [1] and 5190 nM in the data set with VEEV (TC-83). The CC50 in the data set “in vitro” is over 40000 nM.

Consider `COc1cc(OCC(=O)NC23CC4CC(CC(C4)C2)C3)nc(=O)[nH]1` [compound 36, N-(adamantan-1-yl)-2-((6-methoxy-2-oxo-1,2-dihydropyrimidin-4-yl)oxy)acetamide], for which the figures for the log reduction at 10 µM in the data set on CHIKV and with VEEV were 4.56 and 0.63, respectively. The EC90 in the data set with CHIKV is 230 nM; with VEEV, over 10000 nM. Moreover, the EC50 in data set [1] was 1140 nM; in the data set with VEEV (TC-83) it was over 40000 nM. Also, the CC50 in the data set “in vitro” is over 40000 nM.
